Measured values taken from patent publication US20220390432A1, “METHODS OF CHARACTERIZING AND UTILIZING AGENT-CONDENSATE INTERACTIONS” (Whitehead Institute for Biomedical Research, priority 2019, published 2022).
No end group written: not given here.

T1: ER/MED1 droplets (Homo sapiens, UniProt P03372)
T1 sequence (P03372 1-595): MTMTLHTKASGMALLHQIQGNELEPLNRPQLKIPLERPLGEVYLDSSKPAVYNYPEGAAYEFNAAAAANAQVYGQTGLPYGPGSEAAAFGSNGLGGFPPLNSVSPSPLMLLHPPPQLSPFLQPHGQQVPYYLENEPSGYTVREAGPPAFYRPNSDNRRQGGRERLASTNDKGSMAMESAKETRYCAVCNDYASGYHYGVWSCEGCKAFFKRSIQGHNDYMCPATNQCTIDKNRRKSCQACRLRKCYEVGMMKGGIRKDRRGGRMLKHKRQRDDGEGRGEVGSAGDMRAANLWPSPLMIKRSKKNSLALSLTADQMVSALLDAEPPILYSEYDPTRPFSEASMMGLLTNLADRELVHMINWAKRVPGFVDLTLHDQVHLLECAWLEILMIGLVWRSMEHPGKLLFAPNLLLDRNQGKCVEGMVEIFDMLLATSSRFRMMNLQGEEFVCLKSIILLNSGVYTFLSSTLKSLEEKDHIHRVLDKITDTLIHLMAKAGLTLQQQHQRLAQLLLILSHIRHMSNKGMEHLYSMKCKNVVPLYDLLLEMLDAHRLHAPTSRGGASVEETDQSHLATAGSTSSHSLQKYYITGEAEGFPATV


Experiments:
[1] = tested on: MED1, BRD4, and POL2 condensates in HCT116 colon cancer cell lines; assay: Small molecule effects on transcriptional condensates in GFP-tagged HCT116 cells; type: cell-based, human; conditions: for effect of antimetabolites on MED1, BRD4 or POL2 condensates: 5 uM; for effect on transcriptional condensates: MED1-GFP, BRD4-GFP, POL2-GFP HCT116
Description: HCT116 colon cancer cell lines endogenously tagged with MED1-GFP, BRD4-GFP, POL2-GFP, or HP1a-GFP (Mock), all forming condensates in the nucleus.

MED1 = biological target: T2, MED1 (Homo sapiens, UniProt Q15648); assay: In vitro droplet assay, small molecule partitioning into MED1 condensates; type: binding; conditions: confocal fluorescence; Example 2: 125 mM NaCl, 10% PEG, 10 μM protein; fluorescent or fluorescently labeled drug
T2 construct: MED1—amino acids 600-1581; 6xHis (N); made in house; host or cells: LOBSTR cells (E. coli)
Procedure: (§1) Recombinant BFP, GFP, or mCherry fusion proteins were concentrated and desalted to an appropriate protein concentration and 125 mM NaCl using Amicon Ultra centrifugal filters (30K MWCO, Millipore). Recombinant protein was added too. […] The protein solution was immediately loaded onto glass bottom 384 well plate (Cellvis P384-1.5H-N) and imaged with an Andor confocal microscope with a 150× objective. Unless indicated, images presented are of droplets settled on the glass coverslip.
Drug and small molecule concentrations used in the droplet experiments are as follows:
To analyze in vitro droplet experiments, custom Python scripts using the scikit-image package were written to identify droplets and characterize their size, shape and intensity. Droplets were segmented from average images of captured channels on various criteria: (1) an intensity threshold that was three s.d. above the mean of the image; (2) size thresholds (20 pixel minimum droplet size); and (3) a minimum circularity (circularity=4π·areaperimeter2) (circularity=4π·areaperimeter2) of 0.8 (1 being a perfect circle). After segmentation, mean intensity for each droplet was calculated while excluding pixels near the phase interface, and background-corrected by subtracting intensity of dark images of droplet formation buffer only. Droplets identified in the channel of the fluorescent protein from ten independent fields of view were quantified for each experiment. The maximum intensity of signal within the droplets was calculated for each channel, the maximum intensity in the drug channel was termed “maximum drug intensity”. To obtain the intensity of drug or dye alone in the diffuse state (termed “diffuse drug intensity”), the compound was added to droplet formation buffer at same concentration used in the droplet assay. This was then imaged on a confocal fluorescent microscope. The resulting image was processed in FIJI to obtain the fluorescent intensity of the field. To obtain the fluorescent intensity of protein droplets that bleed through in the drug channel (termed “background intensity”) protein droplets were imaged in the fluorescent channel in which the drug fluoresces and processed as above to obtain the average maximum intensity within the droplet across 10 images. The enrichment ratio was obtained by the following formula [(maximum drug intensity)−(background intensity)]/(diffuse drug intensity). The box plots show the distributions of all droplets. Each dot represents an individual droplet.

[2] = Droplet formation assay of small molecule alone without any protein; type: physicochemical; conditions: without any protein added
Procedure: as §1, with “Recombinant protein was added too.” left out

MED1 droplets = biological target: T3, MED1 droplets (Homo sapiens, UniProt Q15648); assay: In vitro droplet drug chase out experiment; type: binding; conditions: 5 μM cisplatin-TR, 10 μM MED1, unlabeled compound 10, 100 or 500 μM
T3 construct: MED1—amino acids 600-1581; 6xHis (N); made in house; host or cells: LOBSTR cells (E. coli)
Procedure: For chase-out experiments 5 μM labeled cisplatin-TR was added to a MED1 droplets reaction (10 μM MED1, 50 mM Tris-HCl pH 7.5, 10% glycerol, 1 mM DTT, 10% PEG) in order to form MED1 droplets concentrated with Cisplatin-TR. Unlabeled transplatin or unlabeled cisplatin (vehicle, 10 μM, 100 μM, or 500 μM) were added to the droplet mixture and the amount of labeled cisplatin-TR remaining in the droplet is measured after chase out. 100 μM fluorescent FLTX1 was added to a MED1 droplets reaction (10 μM MED1, 50 mM Tris-HCl pH 7.5, 10% glycerol, 1 mM DTT, 10% PEG) in order to form MED1 droplets concentrated with FLTX1.

ER/MED1 droplets = biological target: T1, ER/MED1 droplets; assay: Peptides added to ER/MED1 droplets; type: biochemical; conditions: for effect of peptide on ER partitioning / ER/MED1 droplet formation: in the presence of estrogen
Procedure: FIG. 24 illustrates ER/MED1 droplets contacted with a fluorescent peptide (left side).
A number of condensate components are known to form in vitro condensates. In general, one or more condensate components are added to solutions (e.g. aqueous solution) at varying concentrations in the presence of a salt (e.g., NaCl) and, optionally, a crowding agent (e.g., polyethylene glycol, Ficoll). See, e.g., Boija et al, Cell, vol. 175, no. 7, pp. 1842-1855 (2018); Sabari et al., Science, vol. 361, pp. 361-371 (2018); Bergeron-Sandoval et al., Cell, vol. 165, no. 5, pp. 1067-1079 (2016). May 19; 165(5):1067-1079, the relevant methods of which are specifically incorporated herein. In some embodiments, in vitro MED1 containing condensates are formed by adding about 10 μM of MED1 to a solution containing […] of NaCl and 10% PEG (e.g., PEG-8000).

[3] = biological target: T4, MED1 intrinsically disordered region, amino acids 600-1581, recombinant fluorescent fusion protein (human, UniProt Q15648 600-1581); assay: in vitro droplet assay, peptide added to ER/MED1 droplets
T4 construct: Scaffold protein of the in vitro droplets; also called MED1-IDR; MED1 IDR; not shown: N-terminal 6xHIS plus fluorescent protein (BFP, mEGFP or mCherry)
T4 sequence (Q15648 600-1581 limits assumed): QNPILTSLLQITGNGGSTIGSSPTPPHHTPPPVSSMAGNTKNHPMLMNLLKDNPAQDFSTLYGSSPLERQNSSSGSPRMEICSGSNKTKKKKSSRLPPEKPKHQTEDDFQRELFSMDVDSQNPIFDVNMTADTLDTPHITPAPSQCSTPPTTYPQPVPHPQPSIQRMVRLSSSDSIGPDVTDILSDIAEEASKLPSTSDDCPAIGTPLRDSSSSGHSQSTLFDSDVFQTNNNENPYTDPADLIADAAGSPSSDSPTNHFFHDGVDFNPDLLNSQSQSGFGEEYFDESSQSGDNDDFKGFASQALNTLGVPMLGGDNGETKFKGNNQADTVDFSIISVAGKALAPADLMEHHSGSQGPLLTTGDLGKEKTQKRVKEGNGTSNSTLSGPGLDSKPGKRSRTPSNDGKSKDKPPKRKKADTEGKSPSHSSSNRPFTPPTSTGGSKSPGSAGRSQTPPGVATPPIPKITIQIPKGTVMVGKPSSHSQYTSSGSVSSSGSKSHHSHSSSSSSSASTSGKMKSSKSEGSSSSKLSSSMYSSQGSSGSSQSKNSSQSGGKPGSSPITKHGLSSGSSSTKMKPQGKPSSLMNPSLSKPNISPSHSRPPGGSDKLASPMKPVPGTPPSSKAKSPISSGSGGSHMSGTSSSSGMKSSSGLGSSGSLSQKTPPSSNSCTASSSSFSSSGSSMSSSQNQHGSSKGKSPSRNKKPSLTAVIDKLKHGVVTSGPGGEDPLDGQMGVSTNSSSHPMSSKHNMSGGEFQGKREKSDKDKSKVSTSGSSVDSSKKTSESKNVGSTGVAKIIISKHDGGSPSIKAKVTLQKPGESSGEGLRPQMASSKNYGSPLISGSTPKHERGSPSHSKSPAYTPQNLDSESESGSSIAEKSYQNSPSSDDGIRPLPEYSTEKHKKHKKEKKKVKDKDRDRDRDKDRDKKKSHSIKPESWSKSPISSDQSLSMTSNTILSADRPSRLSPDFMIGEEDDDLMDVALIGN

T2 sequence (Q15648 600-1581): as the sequence (Q15648 600-1581 limits assumed) above
T3 sequence (Q15648 600-1581): as the sequence (Q15648 600-1581 limits assumed) above

| Molecule | effect on transcriptional condensates [1] | partitioning / incorporation into MED1 droplets (MED1) | further results |
| --- | --- | --- | --- |
| Nc1ncn([C@@H]2O[C@H](CO)[C@@H](O)[C@H]2O)c(=O)n1 [5-Aza] |  |  | effect of antimetabolites on MED1, BRD4 or POL2 condensates [1]: no effect |
| O=c1[nH]cc(F)c(=O)[nH]1 [5-FU, fluorouracil] |  |  | effect of antimetabolites on MED1, BRD4 or POL2 condensates [1]: no effect |
| CNC(=O)Nc1ccc2c(c1)CC[C@@]21OC(=O)N(CC(=O)N(Cc2ccc(F)cc2)[C@@H](C)C(F)(F)F)C1=O [A485] | genomic release and consolidation of condensates |  |  |
| CC(C)C[C@H](NC(=O)[C@H](Cc1ccccc1)NC(=O)c1cnccn1)B(O)O [Bortezomib] | global dissolution of condensates |  |  |
| COc1cccc2c1C(=O)c1c(O)c3c(c(O)c1C2=O)C[C@@](O)(C(C)=O)C[C@@H]3O[C@H]1C[C@H](N)[C@H](O)[C@H](C)O1 [Daunorubicin] | global dissolution of condensates | immediately incorporate into MED1 droplets | effect on transcriptional condensates ([1]; listed as daunorubicin): cause condensate dissolution |
| CN(C)C/C=C/C(=O)Nc1ccc(C(=O)Nc2cccc(Nc3ncc(Cl)c(-c4c[nH]c5ccccc45)n3)c2)cc1 [THZ1] | global dissolution of condensates | concentrated preferentially in MED1 droplets | droplet formation of small molecule alone [2]: diffuse fluorescent signal |
| N.N.[Cl][Pt+2][Cl] [Transplatin, transplatin] |  |  | chase out of cisplatin-TR from MED1 droplets by unlabeled compound (MED1 droplets): not able to chase out cisplatin-TR; chase out of cisplatin-TR from MED1 droplets by unlabeled compound (MED1 droplets; listed as isomer of cisplatin): did not exhibit the same behavior |
| N#CC(=C(/N)Sc1ccccc1N)/C(C#N)=C(/N)Sc1ccccc1N [U0216] | eviction of some condensate components |  |  |
| COc1cc(/C=C/C(=O)CC(=O)/C=C/c2ccc(O)c(OC)c2)ccc1O [curcumin] | cause condensate dissolution | immediately incorporate into MED1 droplets |  |
| CTD: RNA polymerase II CTD repeat YSPTSPS peptide |  |  | effect of peptide on ER partitioning / ER/MED1 droplet formation (ER/MED1 droplets): did not have an effect |
| QNPILTSLLQITG [LXXLL peptide] |  |  | incorporation of peptide into MED1 droplets (ER/MED1 droplets; ER/MED1 droplets): incorporated into MED1 droplets; effect of peptide on ER partitioning / ER/MED1 droplet formation (ER/MED1 droplets): decrease in partitioning of ER into the MED1 droplet |
| Texas Red |  | Neither of the two dyes used to visualized drugs were enriched |  |
| QNPILTSLLQITG (also: fluorescent label, type and position not given here, also called fluorescent peptide) [LXXLL peptide (QNPILTSLLQITG; SEQ ID NO: 1)] |  |  | binding result [3]: binds |
